# Experimental data as given in PubChem BioAssay AID256 (DTP/NCI, 2004).
# “And” between values parts separate entries of the source, which are not always exact repeats. Equal entries are not always repeated. Toxic doses and inconclusive results are not listed. Non-standard residues stand in square brackets, D forms with d. Residues, ends and D or L forms follow the SMILES beside them. ξ: configuration not given here. ξIva = CCC(C)(N)C(=O)O
# System: CD2F1 mice, L1210 leukemia ip, survival T/C
# Experiment: NCI In Vivo Anticancer Drug Screen. Data for tumor model L1210 Leukemia (intraperitoneal) in CD2F1 (CDF1) mice
# Conditions: higher = longer survival
# Procedure, shortened: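 In this screen, transplantable tumors were grown in mice given either the compound or its vehicle. Results were expressed as the treated measurement relative to the control measurement.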
# [1] = endpoint: mean survival time, dose: 100.0 mg/kg/injection, schedule: Q04DX003 (ip), vehicle: saline with Tween-80
# [2] = endpoint: mean survival time, dose: 200.0 mg/kg/injection, schedule: Q04DX003 (ip), vehicle: saline with Tween-80
# [3] = endpoint: mean survival time, dose: 400.0 mg/kg/injection, schedule: Q04DX003 (ip), vehicle: saline with Tween-80
# [4] = endpoint: mean survival time, dose: 12.5 mg/kg/injection, schedule: Q01DX009 (ip), vehicle: saline
# [5] = endpoint: mean survival time, dose: 100.0 mg/kg/injection, schedule: Q01DX001 (ip), vehicle: saline with Tween-80
# [6] = endpoint: mean survival time, dose: 200.0 mg/kg/injection, schedule: Q01DX001 (ip), vehicle: saline with Tween-80
# [7] = endpoint: mean survival time, dose: 100.0 mg/kg/injection, schedule: Q01DX009 (ip), vehicle: saline with Tween-80
# [8] = endpoint: mean survival time, dose: 200.0 mg/kg/injection, schedule: Q01DX009 (ip), vehicle: saline with Tween-80
# [9] = endpoint: mean survival time, dose: 400.0 mg/kg/injection, schedule: Q01DX009 (ip), vehicle: saline with Tween-80
# [10] = endpoint: mean survival time, dose: 50.0 mg/kg/injection, schedule: Q04DX003 (ip), vehicle: saline with Tween-80
# [11] = endpoint: mean survival time, dose: 100.0 mg/kg/injection, schedule: Q04DX002 (ip), vehicle: saline with Tween-80
# [12] = endpoint: mean survival time, dose: 200.0 mg/kg/injection, schedule: Q04DX002 (ip), vehicle: saline with Tween-80
# [13] = endpoint: mean survival time, dose: 400.0 mg/kg/injection, schedule: Q04DX002 (ip), vehicle: saline with Tween-80
# [14] = endpoint: mean survival time, dose: 50.0 mg/kg/injection, schedule: Q01DX009 (ip), vehicle: saline with Tween-80
structure (smiles),measurement,setting,value
CCOC(CC)C(O)(c1ccc(N(C)C)cc1)c1ccc(N(C)C)cc1 (stereo not drawn),T/C,[1],97 % of control
same,T/C,[2],102 % of control
same,T/C,[3],94 % of control
O[Si](O)([O][Sn]([c]1ccccc1)([c]1ccccc1)[c]1ccccc1)[O][Sn]([c]1ccccc1)([c]1ccccc1)[c]1ccccc1,T/C,"endpoint: mean survival time, dose: 0.39 mg/kg/injection, schedule: Q01DX009 (ip), vehicle: saline",94 % of control
same,T/C,"endpoint: mean survival time, dose: 0.78 mg/kg/injection, schedule: Q01DX009 (ip), vehicle: saline",94 % of control
same,T/C,"endpoint: mean survival time, dose: 1.56 mg/kg/injection, schedule: Q01DX009 (ip), vehicle: saline",105 % of control
same,T/C,"endpoint: mean survival time, dose: 6.25 mg/kg/injection, schedule: Q01DX009 (ip), vehicle: saline",106 % of control
same,T/C,[4],100 % of control
O=C(O)c1cccc(C(=O)O)c1C(=O)O.[NH-]C1CCCCC1[NH-].[Pt+2],T/C,"endpoint: median survival time, dose: 3.12 mg/kg/injection, schedule: Q04DX003 (ip), vehicle: saline",102 % of control and 109 % of control
same,T/C,"endpoint: median survival time, dose: 6.25 mg/kg/injection, schedule: Q04DX003 (ip), vehicle: saline",114 % of control and 103 % of control
same,T/C,"endpoint: median survival time, dose: 12.5 mg/kg/injection, schedule: Q04DX003 (ip), vehicle: saline",115 % of control and 108 % of control
same,T/C,"endpoint: median survival time, dose: 25.0 mg/kg/injection, schedule: Q04DX003 (ip), vehicle: saline",117 % of control
same,T/C,"endpoint: median survival time, dose: 50.0 mg/kg/injection, schedule: Q04DX003 (ip), vehicle: saline",152 % of control
same,T/C,"endpoint: median survival time, dose: 100.0 mg/kg/injection, schedule: Q04DX003 (ip), vehicle: saline",178 % of control and 197 % of control
same,T/C,"endpoint: median survival time, dose: 200.0 mg/kg/injection, schedule: Q04DX003 (ip), vehicle: saline",282 % of control and 375 % of control
CNC(=O)Oc1ccc(N)cc1,T/C,"endpoint: mean survival time, dose: 75.0 mg/kg/injection, schedule: Q01DX001 (ip), vehicle: saline",102 % of control
O=C(O)C(F)(F)F.O=C(O)C(F)(F)F.O=C(O)C(F)(F)F.O=C(O)C(F)(F)F.[Rh].[Rh],T/C,[4],107 % of control
same,T/C,"endpoint: mean survival time, dose: 25.0 mg/kg/injection, schedule: Q01DX009 (ip), vehicle: saline",115 % of control
same,T/C,"endpoint: mean survival time, dose: 50.0 mg/kg/injection, schedule: Q01DX009 (ip), vehicle: saline",118 % of control
same,T/C,"endpoint: mean survival time, dose: 100.0 mg/kg/injection, schedule: Q01DX009 (ip), vehicle: saline",107 % of control
NNC(=O)c1cccc(N)c1,T/C,"endpoint: mean survival time, dose: 25.0 mg/kg/injection, schedule: Q01DX009 (ip), vehicle: saline sonified",98 % of control
same,T/C,"endpoint: mean survival time, dose: 50.0 mg/kg/injection, schedule: Q01DX009 (ip), vehicle: saline sonified",102 % of control
same,T/C,"endpoint: mean survival time, dose: 100.0 mg/kg/injection, schedule: Q01DX009 (ip), vehicle: saline sonified",102 % of control
same,T/C,[1],104 % of control
CC(C)(C)S/C(=N/N=O)NN=O,T/C,[5],100 % of control
same,T/C,[6],102 % of control
same,T/C,"endpoint: mean survival time, dose: 400.0 mg/kg/injection, schedule: Q01DX001 (ip), vehicle: saline with Tween-80",94 % of control
Nc1c(Cl)cccc1C(=O)c1ccccc1C(=O)O,T/C,[7],97 % of control
same,T/C,[1],101 % of control
same,T/C,[8],95 % of control
same,T/C,[2],101 % of control
same,T/C,[9],101 % of control
same,T/C,[3],103 % of control
CCC(C)(NC(=O)CN)C(=O)O (stereo not drawn) (H-Gly-[ξIva]-OH),T/C,"endpoint: mean survival time, dose: 100.0 mg/kg/injection, schedule: Q04DX002 (ip), vehicle: saline",90 % of control
same,T/C,"endpoint: mean survival time, dose: 200.0 mg/kg/injection, schedule: Q04DX002 (ip), vehicle: saline",93 % of control
same,T/C,"endpoint: mean survival time, dose: 400.0 mg/kg/injection, schedule: Q04DX002 (ip), vehicle: saline",90 % of control
CCCCCCCCCCCC(=O)NC(=S)Nc1cc(Cl)ccc1Cl,T/C,"endpoint: mean survival time, dose: 50.0 mg/kg/injection, schedule: Q01DX001 (ip), vehicle: saline with Tween-80",89 % of control
same,T/C,[10],92 % of control
same,T/C,[5],89 % of control
same,T/C,[7],86 % of control and 94 % of control
same,T/C,[11],98 % of control
same,T/C,[1],92 % of control
same,T/C,[6],92 % of control
same,T/C,[8],86 % of control and 92 % of control
same,T/C,[12],98 % of control
same,T/C,[13],98 % of control
same,T/C,[3],86 % of control
CCCCCCCCC(=O)c1ccc(N=Nc2ccc(OCC)cc2)cc1,T/C,[1],94 % of control
same,T/C,[2],91 % of control
same,T/C,[3],89 % of control
C/C(=N/O)[c-]1[c-][c-][c-][c-]1.[Fe].[c-]1[c-][c-][cH-][c-]1,T/C,[14],97 % of control
same,T/C,[5],95 % of control
same,T/C,[7],94 % of control
same,T/C,[6],101 % of control
O=C(NCCNC(=O)Nc1ccc(Cl)cc1)Nc1ccc(Cl)cc1,T/C,[7],105 % of control
same,T/C,[1],88 % of control
same,T/C,[8],107 % of control
same,T/C,[2],90 % of control
same,T/C,[9],96 % of control
same,T/C,[3],88 % of control
O=C1C=C(SCCO)C(=O)c2ccccc21,T/C,"endpoint: mean survival time, dose: 0.63 mg/kg/injection, schedule: Q01DX009 (ip), vehicle: saline sonified",91 % of control
same,T/C,"endpoint: mean survival time, dose: 1.25 mg/kg/injection, schedule: Q01DX009 (ip), vehicle: saline sonified",94 % of control
same,T/C,"endpoint: mean survival time, dose: 1.25 mg/kg/injection, schedule: Q04DX003 (ip), vehicle: saline with Tween-80",92 % of control
same,T/C,"endpoint: mean survival time, dose: 2.5 mg/kg/injection, schedule: Q01DX009 (ip), vehicle: saline sonified",105 % of control
same,T/C,"endpoint: mean survival time, dose: 2.5 mg/kg/injection, schedule: Q04DX003 (ip), vehicle: saline with Tween-80",90 % of control
C[n+]1ccc(Nc2ccc(NC(=O)c3ccc(Nc4cc[n+](C)c5ccc(N)cc45)cc3N)cc2)cc1,T/C,"endpoint: mean survival time, dose: 2.0 mg/kg/injection, schedule: Q01DX009 (ip), vehicle: water",205 % of control
same,T/C,"endpoint: mean survival time, dose: 4.0 mg/kg/injection, schedule: Q01DX009 (ip), vehicle: water",316 % of control
C(=C1c2ccccc2-c2ccccc21)c1cccnc1,T/C,[7],98 % of control
same,T/C,[1],101 % of control
same,T/C,[8],102 % of control
same,T/C,[2],101 % of control
same,T/C,[9],88 % of control
same,T/C,[3],95 % of control
O=C(CNC(=O)Nc1cccc([N+](=O)[O-])c1)N/N=C/c1c(O)ccc2ccccc12,T/C,[14],88 % of control
same,T/C,[7],92 % of control
same,T/C,[8],95 % of control
C1CN(SSN2CCOCC2)CCO1,T/C,[1],100 % of control
same,T/C,[2],92 % of control
CC(C)(C)OC(=O)N1CCCC1C(=O)Oc1ccc([N+](=O)[O-])cc1 (stereo not drawn),T/C,"endpoint: mean survival time, dose: 25.0 mg/kg/injection, schedule: Q04DX003 (ip), vehicle: saline with Tween-80",98 % of control
same,T/C,[10],95 % of control
same,T/C,[1],92 % of control and 93 % of control
CCOCCNc1ccc([N+](=O)[O-])cc1[N+](=O)[O-],T/C,[11],91 % of control
same,T/C,[12],91 % of control
same,T/C,[13],98 % of control
CC(C)C1CCC(C)C(C(CC(=O)c2ccccc2)c2ccccc2)C1=O (stereo not drawn),T/C,[11],97 % of control
same,T/C,[12],90 % of control
same,T/C,[13],101 % of control
COC(=O)c1cccc(I)c1,T/C,[11],100 % of control
same,T/C,[12],100 % of control
same,T/C,[13],96 % of control
CC(C)(C)c1cccc(OS(=O)(=O)c2cccc([N+](=O)[O-])c2)c1,T/C,[7],94 % of control
same,T/C,[8],94 % of control
same,T/C,[9],94 % of control
